# Test results from patent US20050208000A1, “Compositions and methods for prevention of photoaging” (priority 1999, published 2005).
# System: human elastin promoter
# Assay: Transgenic mouse model of photoaging: human elastin promoter/CAT reporter activity in skin after solar simulating radiation
# Format: in vivo, mice
# Excerpt: A transgenic mouse model which contains the human elastin promoter linked to a chloramphenicol acetyltransferase (CAT) reporter gene for testing compounds that may inhibit cutaneous photodamage has been developed. These mice express human elastin promoter activity in a tissue-specific and developmentally regulated manner. […] In addition, quantitative data can be obtained after only a single exposure to ultraviolet radiation. A test compound is applied to the skin of a transgenic mouse capable of expressing the human elastin promoter. The transgenic mouse is then exposed to solar radiation and human elastin promoter activity in the mouse is determined. The human elastin promoter activity is then compared to that in transgenic mice also exposed to an equivalent dose of solar radiation which were not treated with the test compound to determine whether or not the test compound provided protection against the solar radiation. […]
# Using this transgenic mouse line, the ability of alpha 1-antitrypsin to inhibit the effects of solar radiation on human elastin promoter activity was determined. […]
# To measure the expression of the human elastin promoter/CAT reporter gene construct in the skin of transgenic, mice and in fibroblast cultures established from these animals, CAT activity was determined. […]
substance,measurement,setting,value
alpha 1-antitrypsin,reduction in CAT activity,"topical 20 mg/ml alpha 1-antitrypsin in goat's milk versus goat's milk alone, 20 MEDs SSR on three consecutive days",69%
same,Relative increase in CAT activity (mean+S.D.),"transgenic mice, topical application to the back about 15 min before 20 MEDs SSR, three consecutive days, skin harvested 24 hours after third phototreatment, baseline of unirradiated untreated control mice standardized to one",4.5+1.0
